In series [1] the test system is Methylocystis strain SB2. The series is described as follows: Degradation of chlorinated hydrocarbons by Methylocystis strain SB2 grown on ethanol or methane. In kind it is cell-based. The following applies: individual chlorinated hydrocarbons. The protocol:
The ability of Methylocystis strain SB2 to degrade chlorinated hydrocarbon, including trichloroethylene (TCE), trans-dichloroethylene (t-DCE), vinyl chloride (VC), 1,1,1-trichloroethane (1,1,1-TCA), dichloromethane (DCM), and chloroform (CF), was compared when Methylocystis strain SB2 was grown on ethanol relative to when it was grown with methane.

The conditions of series [2]: dimensionless, at 30° C.; cited from earlier work.
Series [3] deals with Methylocystis strain SB2. Description: Nitrogen source utilization by strain SB2 with methane as carbon source. Type of series: cell-based. The conditions noted are these: methane as the carbon source. The protocol: Many nitrogen sources were tested with methane as the carbon source: nitrate (as potassium nitrate), ammonia (as ammonium chloride), L-alanine, L-serine, L-isoluecine, L-proline, L-methionine, L-glutamine, L-asparagine, L-lysine, L-glycine, L-histidine, and L-arginine. […] The presence of nifH was confirmed using PCR using specific primers for nifH (Auman, et al., 2001; Zehr & McReynolds, 1989).

The test system of series [4] is Methylocystis strain SB2. The series is described as follows: Degradation of chlorinated ethenes by Methylocystis strain SB2 grown on methane or acetate. The following applies: SB2 grown on CH3COOH + C2H2 (acetylene); 40 μM each of TCE, t-DCE, and VC; 216 hours. Type of series: cell-based.
Experimental: Saturated stock solutions were prepared for TCE and t-DCE as described by Chang and Alvarez-Cohen (1996). Hamilton 1700 series gas-tight syringes (Hamilton, Reno, Nev.) were used to take aliquots from the stock solutions. Gaseous compounds, i.e., methane and VC, were transferred to gas bags before use. Aliquots were taken with Precision Lok gas-tight syringes purchased from Precision Sampling Corp (Baton Rouge, La.). The amount of chlorinated solvents to be added was calculated considering dimensionless Henry's constants at 30° C. […]
The method used previously by Lee et al. (2006) and Yoon and Semrau (2008) was slightly modified for these assays. […] The growth of Methylocystis strain SB2 was monitored until the cell growth was no longer observed. The initial and final concentration of TCE, t-DCE, and VC were measured with HP5890 Series II gas chromatograph equipped with a 75 m DB-624 column with 0.53 mm internal diameter (J&W Scientific Co.). […] TCE and t-DCE were detected with an electron capture detector (ECD) with injector, oven, and detector temperatures set to 160, 120, and 250° C., respectively. VC was detected with a flame ionization detector (FID) with injector, oven, and detector temperatures set to 140, 120, and 250° C., respectively.
Series [5] in a line: Abiotic loss of chlorinated ethenes from serum vials with sterile NMS medium. Type of series: physicochemical. The following applies: 40 μM each in 5 ml sterile NMS medium; 216 hours. As to the method:
Growth and degradation of chlorinated solvents. The growth of Methylocystis strain SB2 and degradation of the mixture of TCE, t-DCE, and VC were measured in three different conditions: methane, acetate, and acetate with acetylene (a selective inhibitor of both MMOs) (Prior and Dalton, 1985). The method used previously by Lee et al. (2006) and Yoon and Semrau (2008) was slightly modified for these assays. For all three growth conditions, Methylocystis strain SB2 was initially grown on methane to the mid-exponential phase (OD600 nm of 0.3-0.4). This cell suspension was flushed with compressed air as described above to remove residual methane and diluted to OD600<0.03 in 50 ml of fresh media in 250 ml Erlenmeyer flask. For growth on methane, methane was added to the headspace to an air:methane ratio of 1:1 and the cells were grown back to an OD600 of ca. 0.06. After the flask was flushed with compressed air as described earlier, five milliliter aliquots were transferred to serum vials specially fabricated to measure growth at OD600 over time as described earlier (Lee et al., 2006). Teflon-coated butyl-rubber stoppers (National Scientific Co., Duluth, Ga.) were used to seal the serum vials. After the serum vials were securely sealed, 5 ml of the air in headspace was replaced with 5 ml of methane to ensure sufficient methane for growth. For growth on acetate, 1 mM of sodium acetate (Im et al., 2010) instead of methane was added to the diluted cell suspension in 250-ml Erlenmeyer flasks. […] The growth of Methylocystis strain SB2 was monitored until the cell growth was no longer observed. The initial and final concentration of TCE, t-DCE, and VC were measured with HP5890 Series II gas chromatograph equipped with a 75 m DB-624 column with 0.53 mm internal diameter (J&W Scientific Co.). […] TCE and t-DCE were detected with an electron capture detector (ECD) with injector, oven, and detector temperatures set to 160, 120, and 250° C., respectively. VC was detected with a flame ionization detector (FID) with injector, oven, and detector temperatures set to 140, 120, and 250° C., respectively.

Series [6] has as its system Methylosinus trichosporium OB3b expressing pMMO. The conditions noted are these: 50 μM each of VC, t-DCE, and TCE; 110 hours of growth on methane; Lee et al., 2006; cited from earlier work.
Series [7] deals with Methylocystis strain SB2. Description: Growth of Methylocystis strain SB2 on carbon sources. In kind it is cell-based. The conditions noted are these: for OD600 reached (final / max OD600) / growth rate: NMS medium, 10 μM copper, 30° C.; for growth on substrate as carbon source: substrates 0.05%, methanol 0.01-1% (v/v), acetate 0.01-0.5% (w/v), ethanol 0.05-1% (v/v); for growth rate: exponential kinetics. As to the method:
Methylocystis strain SB2 was incubated in 50 ml of NMS medium in 250 ml flask supplemented with 10 μM of copper as CuCl2. The flasks were incubated at 30° C. with shaking at 250 rpm. Cell growth was monitored by measuring OD600 using a Spectronic-20 (Milton Roy Company, USA).
Growth of strain SB2 on Alternative Carbon Sources: Growth on methanol (0.05% v/v) and methylamine, glucose, fructose, sucrose, galactose, xylose, arabinose, and maltose (all at a concentration of 0.05% w/v) was tested, as were the organic acids formate, pyruvate, succinate, malate, citrate and oxalate (all added as sodium salts at a concentration of 0.05% w/v).
At this pH, 99% of the added acetate exists as the dissociated form. It is believed that undissociated acetate is transferred across the cell membrane, thus the proton motive force is dissipated to transport acetate into the cell (Axe and Bailey, 1995), which inhibits microbial growth.

For series [8], the system named is Methylocystis strain SB2. Description: Growth yield and carbon conversion efficiency, Methylocystis strain SB2. Type of series: cell-based. The conditions noted are these: NMS, 10 μM copper, standard error in parentheses. As to the method: For Table 1, the molar growth yield (g dry cell▪(mol substrate^−1)) and the efficiency of carbon conversion to cell material (g cell carbon▪(g substrate carbon)^−1) were determined in triplicate 5 ml of NMS medium supplemented with 10 μM of copper as CuCl2 using specially constructed 32.5 ml vials containing a CH4/air mixture (1:2 ratio in the headspace), or 0.10% (w/v) of sodium acetate as a sole carbon source. CH4 and acetate concentrations were measured using gas chromatography equipped with a FID (HP 5890 Series II) and ion chromatography (Dionex DX100, Sunnyvale, Calif.), respectively. Cell growth was monitored by measuring OD600 using a Spectronic-20 spectrometer (Milton Roy Company, USA). Turbidity was correlated to protein concentration using the Bio-Rad Protein Assay (Bio-Rad Laboratories, Richmond, Calif.) with bovine serum albumin (BSA) as the standard following manufacturer's instructions. To estimate the carbon content of biomass it was assumed that dry biomass was 50% protein, and C4H8O2N was the biomass elemental composition (Leak and Dalton, 1986).

The subject of series [9] is Methylocella silvestris BL2. The conditions noted are these: Dedysh, et al. (2005); cited from earlier work.
The subject of series [10] is Methylocystis echinoides IMET 10491T. The conditions noted are these: growth on acetate; Belova et al., 2010; cited from earlier work.
The subject of another series is Methylocystis heyeri H2T. The conditions noted are these: growth on acetate; Belova et al., 2010; cited from earlier work.
In a further series the test system is Methylocystis strain H2s. The following applies: growth on acetate; Belova et al., 2010; cited from earlier work.
The next series deals with Methylocapsa aurea KYGT. The following applies: growth on acetate; cited from earlier work.
Series [11] concerns Methylocystis strain SB2. Description: Growth of Methylocystis strain SB2 in the presence of chlorinated ethenes. In kind it is cell-based. The following applies: grown on methane in the absence of chlorinated ethenes.
Experimental: Methylocystis strain SB2 was initially grown on methane (1:1 methane-to-air ratio) to the mid-exponential phase (OD600 of 0.3-0.4 as measured using a Spectronic 20 spectrometer (Milton Roy Company, USA)). […] The cultures were then diluted to an OD600 of 0.06 with fresh NMS medium. Five ml aliquots were added to serum vials specially fabricated to measure growth as OD600 over time and respective growth substrates were added. For addition of methane, 5 ml of headspace was replaced with >99.99% methane after sealing the vials for a final concentration of 15% v/v in the headspace. […] Growth was monitored by measuring absorbance at 600 nm (OD600).
For all three growth conditions, Methylocystis strain SB2 was initially grown on methane to the mid-exponential phase (OD600 nm of 0.3-0.4). This cell suspension was flushed with compressed air as described above to remove residual methane and diluted to OD600<0.03 in 50 ml of fresh media in 250 ml Erlenmeyer flask. For growth on methane, methane was added to the headspace to an air:methane ratio of 1:1 and the cells were grown back to an OD600 of ca. 0.06. […] The growth of Methylocystis strain SB2 was monitored until the cell growth was no longer observed.

`CC(Cl)(Cl)Cl` [1,1,1-TCA, 1,1,1-trichloroethane]: in the series on Methylocystis strain SB2 [1], the “degradation by strain SB2 grown on ethanol” value (from here on “degradation … on ethanol”) is “degraded” and the “degradation by strain SB2 grown on methane” value (“degradation … on methane” below) is given as “degraded”. Further, in series [2], the “Henry's constants” value is on record as 0.804.

With `ClC(Cl)Cl` [CF, chloroform], in the series with Methylocystis strain SB2 [1], the “degradation … on ethanol” value is “not” and the “degradation … on methane” value is listed as “degraded”. Moreover, in series [2], the “Henry's constants” value was 0.189.

In the case of `ClCCl` [DCM, dichloromethane], in the series with Methylocystis strain SB2 [1], the “degradation … on ethanol” value is given as “not” and the “degradation … on methane” value was “not”. Further, in series [2], the “Henry's constants” value was 0.125.

As for `NC(=O)CC[C@H](N)C(=O)O` [L-glutamine], in the series with Methylocystis strain SB2 [3], the “utilization as nitrogen source” value was “able to utilize”.

On to `CC[C@H](C)[C@H](N)C(=O)O` [L-isoleucine], for which, in the series with Methylocystis strain SB2 [3], the “utilization as nitrogen source” value was “able to utilize”.

Take `O=C(O)[C@@H]1CCCN1` [L-proline]: the “utilization as nitrogen source” value in the series with Methylocystis strain SB2 [3] was “able to utilize”.

Take `ClC=C(Cl)Cl` [TCE, trichloroethylene]: in the series with Methylocystis strain SB2 [4], the “% Chlorinated ethene degraded (range of duplicate samples)” value is 3.3%. Also, the “Abiotic loss, % (range of duplicate samples)” value (shortened to “Abiotic loss, %”) in series [5] is on record as 5.2%. Moreover, in the series with Methylocystis strain SB2 [1], the “degradation … on ethanol” value is on record as “degraded” and the “degradation … on methane” value is on record as “degraded”. The “% degraded” value in [6] is listed as 35%. Also, the “Henry's constants” value in series [2] is on record as 0.458.

With `C=CCl` [VC, vinyl chloride], in series [5], the “Abiotic loss, %” value was found to be 1.8%. Moreover, in the series on Methylocystis strain SB2 [1], the “degradation … on ethanol” value is “degraded” and the “degradation … on methane” value was “degraded”. The “% degraded” value in [6] is listed as 97%. For the same compound, in [2], the “Henry's constants” value is recorded as 1.262.

`CC(=O)O` [acetate]: in the series on Methylocystis strain SB2 [7], the “OD600 reached (final / max OD600)” value stood at 0.26. Moreover, the “growth on substrate as carbon source” value in the series with Methylocystis strain SB2 [7] is “grew”. The “Efficiency of carbon conversion” value in the series on Methylocystis strain SB2 [8] is 22.1 (±0.2) %; in series [9], 40.1 (±2.43) %. For the same compound, the Growth yield is on record as 12.0 (±0.13) g cell dry weight ▪(mol substrate^−1 in the series with Methylocystis strain SB2 [8] and 20.5 (±1.24) g cell dry weight ▪(mol substrate^−1 in series [9]. The figures for the “max OD410” value (in [10]; in the series with Methylocystis heyeri H2T; in the series with Methylocystis strain H2s) were 0.09, 0.14 and about 0.23, respectively. In addition, the “max OD600” value in the series on Methylocapsa aurea KYGT is 0.3.

Consider `N` [ammonium], for which the “utilization as nitrogen source” value in the series with Methylocystis strain SB2 [3] was “able to utilize”.

As for `CCO` [ethanol], in the series on Methylocystis strain SB2 [7], the “OD600 reached (final / max OD600)” value is recorded as 0.45, the growth rate was 0.022 ± 0.002 h⁻¹ and the “growth on substrate as carbon source” value is given as “grew”.

As for `C` [methane], in the series with Methylocystis strain SB2 [7], the “OD600 reached (final / max OD600)” value is given as 0.83 and the growth rate is 0.052 ± 0.004 h⁻¹. In the series with Methylocystis strain SB2 [8], the “Efficiency of carbon conversion” value is on record as 12.3 (±0.5) % and the Growth yield is recorded as 3.13 (±0.12) g cell dry weight ▪(mol substrate^−1. Moreover, the specific growth rate in the series with Methylocystis strain SB2 [11] was 0.057 h⁻¹. Also, in [9], the “Efficiency of carbon conversion” value is listed as 13.2 (±0.698) % and the Growth yield is recorded as 3.59 (±0.104) g cell dry weight ▪(mol substrate^−1.

For `CO` [methanol], the “growth on substrate as carbon source” value in the series on Methylocystis strain SB2 [7] is “no growth”.

Consider `O=[N+]([O-])O` [nitrate], for which the “utilization as nitrogen source” value in the series on Methylocystis strain SB2 [3] is given as “able to utilize”.

In the case of `Cl/C=C/Cl` [t-DCE, trans-dichloroethylene], in series [5], the “Abiotic loss, %” value is on record as 0 (0) %. In the series with Methylocystis strain SB2 [1], the “degradation … on ethanol” value is reported as “degraded” and the “degradation … on methane” value was “degraded”. Moreover, in series [6], the “% degraded” value is 98%. Besides, in series [2], the “Henry's constants” value is reported as 0.474.

Source of the values: US8629239B2, “Methylocystis strain SB2 materials and methods” (Iowa State University Research Foundation, Inc., priority 2010, dated 2014).
